# Test results as given in ChEMBL document CHEMBL4619826, “Insights into the Molecular Determinants Involved in Urocontrin and Urocontrin A Action” (ACS Med Chem Lett, 2020).
# Assays:
# [1] = test system: Thoracic aorta; test: Contractile activity in Sprague-Dawley rat thoracic aorta assessed as ratio of KCl-induced contraction to human U2-induced contraction in aortic ring at 10^-11 to 3 x 10^-6 M relative to control; assay type: functional
# [2] = target: T1, Urotensin-2 receptor (Homo sapiens, UniProt Q9UKP6); test: Antagonist activity at human UT receptor expressed in HEK293 cells using Na [125I] incubated for 2 hrs by gamma counting method; assay type: cell-based
# T1 sequence (Q9UKP6 whole entry): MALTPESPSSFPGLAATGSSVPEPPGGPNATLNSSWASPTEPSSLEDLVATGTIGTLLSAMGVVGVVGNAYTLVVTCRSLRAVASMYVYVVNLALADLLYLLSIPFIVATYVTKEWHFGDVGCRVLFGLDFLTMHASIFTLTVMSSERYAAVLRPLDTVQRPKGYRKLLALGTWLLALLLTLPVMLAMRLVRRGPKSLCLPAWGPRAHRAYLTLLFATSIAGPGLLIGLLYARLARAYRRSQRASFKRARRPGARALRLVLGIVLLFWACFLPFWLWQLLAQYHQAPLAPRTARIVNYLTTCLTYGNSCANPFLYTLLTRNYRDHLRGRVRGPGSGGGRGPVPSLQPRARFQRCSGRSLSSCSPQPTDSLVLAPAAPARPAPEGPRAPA
# [3] = test system: Thoracic aorta; test: Contractile activity in Sprague-Dawley rat thoracic aorta assessed as contraction in aortic ring preincubated ofr 30 mins followed by URP or human U2-stimulation; assay type: functional, tissue-based
# [4] = test system: Thoracic aorta; test: Contractile activity in Sprague-Dawley rat thoracic aorta assessed as ratio of KCl-induced contraction to human U2-induced contraction in aortic ring at 3 x 10^-6 M (reference value: 101 +/- 4 %); assay type: functional
# [5] = test system: Thoracic aorta; test: Contractile activity in Sprague-Dawley rat thoracic aorta assessed as contraction in aortic ring preincubated ofr 30 mins followed by human U2-stimulation (reference value: 8.59 +/- 0.12); assay type: functional, tissue-based
# [6] = test system: Thoracic aorta; test: Contractile activity in Sprague-Dawley rat thoracic aorta assessed as ratio of KCl-induced contraction to URP-induced contraction in aortic ring at 10^-5 M (reference value: 107 +/- 3 %); assay type: functional
# [7] = test system: Thoracic aorta; test: Contractile activity in Sprague-Dawley rat thoracic aorta assessed as ratio of KCl-induced contraction to human U2-induced contraction in aortic ring at 10^-6 M (reference value: 101 +/- 4 %); assay type: functional
# [8] = test system: Thoracic aorta; test: Contractile activity in Sprague-Dawley rat thoracic aorta assessed as ratio of KCl-induced contraction to URP-induced contraction in aortic ring at 10^-6 M (reference value: 107 +/- 3 %); assay type: functional
# [9] = test system: Thoracic aorta; test: Contractile activity in Sprague-Dawley rat thoracic aorta assessed as contraction in aortic ring preincubated ofr 30 mins followed by URP-stimulation (reference value: 8.16 +/- 0.08); assay type: functional, tissue-based
# [10] = test system: Thoracic aorta; test: Contractile activity in Sprague-Dawley rat thoracic aorta assessed as contraction in aortic ring at 10^-5 M relative to control; assay type: functional
# [11] = test system: Thoracic aorta; test: Contractile activity in Sprague-Dawley rat thoracic aorta assessed as ratio of KCl-induced contraction to URP-induced contraction in aortic ring at 3 x 10^-6 M (reference value: 107 +/- 3 %); assay type: functional
# [12] = test system: Thoracic aorta; test: Contractile activity in Sprague-Dawley rat thoracic aorta assessed as ratio of KCl-induced contraction to human U2-induced contraction in aortic ring at 10^-5 M (reference value: 101 +/- 4 %); assay type: functional
SMILES,Emax [1] [%],IC50 [2] [nM],EC50 [3] [nM],Emax at 3 µM [4] [%],EC50 [5] [nM],Emax at 10 µM [6] [%],Emax at 1 µM [7] [%],Emax at 1 µM [8] [%],EC50 [9] [nM],Emax at 10 µM [10] [%],Emax at 3 µM [11] [%],Emax at 10 µM [12] [%]
CC(C)[C@H](NC(=O)[C@@H]1CSSC[C@H](NC(=O)[C@H](C)N)C(=O)NC(Cc2ccccc2)C(=O)N[C@H](Cc2ccc(I)cc2)C(=O)N[C@@H](CCCCN)C(=O)N[C@@H](Cc2ccc(O)cc2)C(=O)N1)C(=O)O (stereo in doubt),114,2.45,28.8,,,,,,,,,
CC(C)[C@H](NC(=O)[C@@H]1CSSC[C@H](NC(=O)[C@H](C)N)C(=O)N[C@@H](Cc2ccccc2)C(=O)N[C@@H](Cc2ccc(OCc3ccccc3)cc2)C(=O)N[C@@H](CCCCN)C(=O)N[C@@H](Cc2ccc(O)cc2)C(=O)N1)C(=O)O,,,> 3160,80,,,,,,,,
CC(C)[C@H](NC(=O)[C@@H]1CSSC[C@H](NC(=O)[C@H](C)N)C(=O)N[C@@H](Cc2ccccc2)C(=O)N[C@@H](Cc2ccc(-c3ccncc3)cc2)C(=O)N[C@@H](CCCCN)C(=O)N[C@@H](Cc2ccc(O)cc2)C(=O)N1)C(=O)O,,155,> 3160,5 to 25,1.41 to 4.47,92,70,96,2.95 to 6.46,9,94,
CC(C)[C@H](NC(=O)[C@@H]1CSSC[C@H](NC(=O)[C@H](C)N)C(=O)N[C@@H](Cc2ccccc2)C(=O)N[C@@H](Cc2ccc(-c3cccnc3)cc2)C(=O)N[C@@H](CCCCN)C(=O)N[C@@H](Cc2ccc(O)cc2)C(=O)N1)C(=O)O,,102,> 3160,24,2.09,,94,102,8.51,,,
CC(C)[C@H](NC(=O)[C@@H]1CSSC[C@H](NC(=O)[C@H](C)N)C(=O)N[C@@H](Cc2ccccc2)C(=O)N[C@@H](Cc2c[nH]c3ccccc23)C(=O)N[C@@H](CCCCN)C(=O)N[C@@H](Cc2ccc(O)cc2)C(=O)N1)C(=O)O,107,5.13,6.92,,,,,,,,,
CC(C)[C@H](NC(=O)[C@@H]1CSSC[C@H](NC(=O)[C@H](C)N)C(=O)N[C@@H](Cc2ccccc2)C(=O)N[C@@H](Cc2ccc(-c3ccc(-c4ccccc4)cc3)cc2)C(=O)N[C@@H](CCCCN)C(=O)N[C@@H](Cc2ccc(O)cc2)C(=O)N1)C(=O)O,9,135,7.76,65,2.24 to 3.39,92,79,99,6.61 to 12,,95,55
CC(C)[C@H](NC(=O)[C@@H]1CSSC[C@H](NC(=O)[C@H](C)N)C(=O)N[C@@H](Cc2ccccc2)C(=O)N[C@H](Cc2ccc(C#Cc3ccccc3)cc2)C(=O)N[C@@H](CCCCN)C(=O)N[C@@H](Cc2ccc(O)cc2)C(=O)N1)C(=O)O,99,12,28.2,,,,,,,,,
CC(C)[C@H](NC(=O)[C@@H]1CSSC[C@H](NC(=O)[C@H](C)N)C(=O)N[C@@H](Cc2ccccc2)C(=O)N[C@H](Cc2ccc(-c3ccccc3)cc2)C(=O)N[C@@H](CCCCN)C(=O)N[C@@H](Cc2ccc(O)cc2)C(=O)N1)C(=O)O,97,3.16,47.9,,,,,,,,,
CC(C)[C@H](NC(=O)[C@@H]1CSSC[C@H](NC(=O)[C@H](C)N)C(=O)N[C@@H](Cc2ccccc2)C(=O)N[C@@H](Cc2ccc(-c3ccsc3)cc2)C(=O)N[C@@H](CCCCN)C(=O)N[C@@H](Cc2ccc(O)cc2)C(=O)N1)C(=O)O,,36.3,> 3160,20,7.59,,105,115,12.9,,,
